Experimental data: the NIST ThermoML archive (doi:10.1021/acs.jced.5b00903)
± gives the expanded uncertainty stated by the source.

Assay: xn = mol fraction of the nth substance listed
Details: surface light scattering

CC(C)CC(C)(C)C [2,2,4-trimethylpentane] + CCCCCCCO
x1 = 1
Details	surface tension liquid-gas [mN/m]
298.15 K	18.3 ± 0.18
303.15 K	17.9 ± 0.18
308.15 K	17.43 ± 0.18
313.15 K	17.09 ± 0.17
318.15 K	16.56 ± 0.17
323.15 K	16.2 ± 0.16

CC(C)CC(C)(C)C [2,2,4-trimethylpentane] + CCCCCCO
x1 = 1
Details	surface tension liquid-gas [mN/m]
298.15 K	18.3 ± 0.18
303.15 K	17.9 ± 0.18
308.15 K	17.43 ± 0.18
313.15 K	17.09 ± 0.17
318.15 K	16.56 ± 0.17
323.15 K	16.2 ± 0.16

CC(C)CC(C)(C)C [2,2,4-trimethylpentane] + CCCCCO
x1 = 1
Details	surface tension liquid-gas [mN/m]
298.15 K	18.3 ± 0.18
303.15 K	17.9 ± 0.18
308.15 K	17.43 ± 0.18
313.15 K	17.09 ± 0.17
318.15 K	16.56 ± 0.17
323.15 K	16.2 ± 0.16

CC(C)CC(C)(C)C [2,2,4-trimethylpentane] + CCCO
surface tension liquid-gas [mN/m]
Details	x1 = 0.1	x1 = 0.2	x1 = 0.3	x1 = 0.4	x1 = 0.4999	x1 = 0.5996	x1 = 0.6998	x1 = 0.7995	x1 = 0.9	x1 = 1
298.15 K	22.09 ± 0.23	21.18 ± 0.22	20.58 ± 0.21	20.05 ± 0.2	19.57 ± 0.2	19.22 ± 0.19	18.96 ± 0.19	18.69 ± 0.19	18.51 ± 0.19	18.3 ± 0.18
303.15 K	21.65 ± 0.22	20.73 ± 0.21	20.12 ± 0.21	19.6 ± 0.2	19.12 ± 0.19	18.77 ± 0.19	18.53 ± 0.19	18.26 ± 0.18	18.09 ± 0.18	17.9 ± 0.18
308.15 K	21.23 ± 0.22	20.28 ± 0.21	19.66 ± 0.2	19.12 ± 0.19	18.64 ± 0.19	18.29 ± 0.19	18.05 ± 0.18	17.78 ± 0.18	17.62 ± 0.18	17.43 ± 0.18
313.15 K	20.77 ± 0.21	19.81 ± 0.2	19.19 ± 0.2	18.66 ± 0.19	18.19 ± 0.19	17.85 ± 0.18	17.63 ± 0.18	17.39 ± 0.18	17.25 ± 0.17	17.09 ± 0.17
318.15 K	20.31 ± 0.21	19.31 ± 0.2	18.67 ± 0.19	18.13 ± 0.18	17.65 ± 0.18	17.31 ± 0.18	17.09 ± 0.17	16.85 ± 0.17	16.72 ± 0.17	16.56 ± 0.17
323.15 K	19.84 ± 0.2	18.82 ± 0.19	18.18 ± 0.19	17.64 ± 0.18	17.17 ± 0.17	16.84 ± 0.17	16.65 ± 0.17	16.43 ± 0.17	16.33 ± 0.16	16.2 ± 0.2

CC(C)CC(C)(C)C [2,2,4-trimethylpentane] + CCO
surface tension liquid-gas [mN/m]
Details	x1 = 0.0429	x1 = 0.0916	x1 = 0.1474	x1 = 0.2119	x1 = 0.2874	x1 = 0.3769	x1 = 0.4848	x1 = 0.6173	x1 = 0.784	x1 = 1
288.15 K	22.27 ± 0.23	21.88 ± 0.23	21.47 ± 0.22	21.11 ± 0.22	20.74 ± 0.21	20.4 ± 0.21	20.03 ± 0.2	19.75 ± 0.2	19.5 ± 0.2	19.14 ± 0.19
298.15 K	21.38 ± 0.22	20.96 ± 0.22	20.54 ± 0.21	20.17 ± 0.21	19.8 ± 0.2	19.46 ± 0.2	19.09 ± 0.19	18.83 ± 0.19	18.62 ± 0.19	18.3 ± 0.18
308.15 K	20.54 ± 0.21	20.11 ± 0.21	19.66 ± 0.2	19.28 ± 0.2	18.9 ± 0.19	18.55 ± 0.19	18.17 ± 0.18	17.92 ± 0.18	17.73 ± 0.18	17.43 ± 0.18
318.15 K	19.77 ± 0.2	19.31 ± 0.2	18.85 ± 0.19	18.45 ± 0.19	18.05 ± 0.18	17.7 ± 0.18	17.31 ± 0.18	17.05 ± 0.17	16.86 ± 0.17	16.56 ± 0.17

CCO [ethanol] + CC(C)CC(C)(C)C
x2 = 0
Details	surface tension liquid-gas [mN/m]
288.15 K	22.72 ± 0.23
298.15 K	21.85 ± 0.23
308.15 K	21.04 ± 0.22
318.15 K	20.29 ± 0.21

CCO [ethanol] + CCCCCCC
x2 = 0
Details	surface tension liquid-gas [mN/m]
293.15 K	22.31 ± 0.23
298.15 K	21.85 ± 0.23
303.15 K	21.41 ± 0.22
308.15 K	21.04 ± 0.22
313.15 K	20.62 ± 0.21
318.15 K	20.29 ± 0.21

CCCCCCCO [heptan-1-ol] + CC(C)CC(C)(C)C
surface tension liquid-gas [mN/m]
Details	x2 = 0	x2 = 0.1003	x2 = 0.2002	x2 = 0.3002	x2 = 0.3999	x2 = 0.5	x2 = 0.6	x2 = 0.6999	x2 = 0.7999	x2 = 0.8999
298.15 K	26.46 ± 0.3	24.78 ± 0.27	23.26 ± 0.25	22.3 ± 0.24	21.46 ± 0.23	20.67 ± 0.22	20.04 ± 0.21	19.59 ± 0.2	19.07 ± 0.19	18.72 ± 0.19
303.15 K	25.93 ± 0.29	24.13 ± 0.27	22.69 ± 0.25	21.74 ± 0.23	20.9 ± 0.22	20.14 ± 0.21	19.53 ± 0.2	19.1 ± 0.2	18.61 ± 0.19	18.29 ± 0.18
308.15 K	25.43 ± 0.28	23.63 ± 0.26	22.12 ± 0.24	21.15 ± 0.23	20.32 ± 0.21	19.55 ± 0.2	18.97 ± 0.2	18.55 ± 0.19	18.08 ± 0.18	17.81 ± 0.18
313.15 K	24.95 ± 0.28	23.15 ± 0.26	21.61 ± 0.23	20.65 ± 0.22	19.83 ± 0.21	19.08 ± 0.2	18.51 ± 0.19	18.13 ± 0.19	17.68 ± 0.18	17.45 ± 0.18
318.15 K	24.55 ± 0.27	22.72 ± 0.25	21.11 ± 0.23	20.14 ± 0.22	19.3 ± 0.2	18.55 ± 0.19	17.97 ± 0.19	17.59 ± 0.18	17.14 ± 0.17	16.92 ± 0.17
323.15 K	24.03 ± 0.27	22.13 ± 0.24	20.53 ± 0.22	19.6 ± 0.21	18.77 ± 0.2	18 ± 0.19	17.48 ± 0.18	17.12 ± 0.18	16.71 ± 0.17	16.53 ± 0.17

CCCCCCC [heptane] + CCO
surface tension liquid-gas [mN/m]
Details	x1 = 0.0481	x1 = 0.1018	x1 = 0.1676	x1 = 0.2314	x1 = 0.3171	x1 = 0.4111	x1 = 0.5123	x1 = 0.6417	x1 = 0.7983	x1 = 1
293.15 K	21.78 ± 0.23	21.27 ± 0.22	20.93 ± 0.22	20.74 ± 0.22	20.53 ± 0.22	20.36 ± 0.22	20.25 ± 0.22	20.2 ± 0.22	20.17 ± 0.22	20.12 ± 0.23
298.15 K	21.3 ± 0.22	20.77 ± 0.22	20.41 ± 0.21	20.22 ± 0.21	20.02 ± 0.21	19.85 ± 0.21	19.75 ± 0.21	19.72 ± 0.21	19.71 ± 0.22	19.69 ± 0.22
303.15 K	20.83 ± 0.22	20.27 ± 0.21	19.89 ± 0.21	19.7 ± 0.21	19.48 ± 0.21	19.31 ± 0.21	19.2 ± 0.21	19.16 ± 0.21	19.15 ± 0.21	19.13 ± 0.21
308.15 K	20.43 ± 0.21	19.84 ± 0.21	19.44 ± 0.2	19.24 ± 0.2	19.02 ± 0.2	18.83 ± 0.2	18.72 ± 0.2	18.69 ± 0.2	18.68 ± 0.21	18.67 ± 0.21
313.15 K	20 ± 0.21	19.39 ± 0.2	18.98 ± 0.2	18.76 ± 0.2	18.53 ± 0.2	18.33 ± 0.19	18.2 ± 0.19	18.16 ± 0.2	18.13 ± 0.2	18.1 ± 0.2
318.15 K	19.64 ± 0.2	19.01 ± 0.2	18.58 ± 0.19	18.36 ± 0.19	18.12 ± 0.19	17.91 ± 0.19	17.79 ± 0.19	17.75 ± 0.19	17.73 ± 0.19	17.7 ± 0.2

CCCCCCO [hexan-1-ol] + CC(C)CC(C)(C)C
surface tension liquid-gas [mN/m]
Details	x2 = 0	x2 = 0.1001	x2 = 0.2	x2 = 0.3001	x2 = 0.4	x2 = 0.5	x2 = 0.6001	x2 = 0.7001	x2 = 0.7997	x2 = 0.8998
298.15 K	25.56 ± 0.29	24.01 ± 0.26	22.65 ± 0.25	21.78 ± 0.23	21.03 ± 0.22	20.33 ± 0.21	19.78 ± 0.2	19.38 ± 0.2	18.95 ± 0.19	18.65 ± 0.19
303.15 K	24.95 ± 0.28	23.31 ± 0.26	22.03 ± 0.24	21.17 ± 0.23	20.44 ± 0.22	19.76 ± 0.21	19.25 ± 0.2	18.88 ± 0.19	18.47 ± 0.19	18.22 ± 0.18
308.15 K	24.65 ± 0.28	22.99 ± 0.25	21.62 ± 0.23	20.74 ± 0.22	19.99 ± 0.21	19.3 ± 0.2	18.77 ± 0.19	18.41 ± 0.19	18 ± 0.18	17.75 ± 0.18
313.15 K	23.93 ± 0.27	22.3 ± 0.25	20.9 ± 0.23	20.05 ± 0.21	19.34 ± 0.2	18.69 ± 0.2	18.21 ± 0.19	17.9 ± 0.18	17.54 ± 0.18	17.37 ± 0.18
318.15 K	23.58 ± 0.26	21.91 ± 0.24	20.45 ± 0.22	19.58 ± 0.21	18.85 ± 0.2	18.17 ± 0.19	17.69 ± 0.18	17.37 ± 0.18	17.01 ± 0.17	16.84 ± 0.17
323.15 K	23.21 ± 0.26	21.43 ± 0.24	19.99 ± 0.22	19.11 ± 0.2	18.38 ± 0.19	17.71 ± 0.19	17.24 ± 0.18	16.94 ± 0.17	16.6 ± 0.17	16.47 ± 0.17
